Experimental data: patent US20030203975A1, “Anti-cancer agents” (priority 1998, published 2003)

What was measured:
[1] = In vitro cytotoxicity against CHO cell lines (MTT assay); type: cell-based; conditions: Chinese hamster, MTT assay after 24 hours exposure
Method: Chinese Hamster Ovary (CHO) cell lines were grown as monolayers in Ham's F-10 nutrient mixture supplemented with 5% foetal calf serum and 5% heat-inactivated newborn calf serum. All experiments were performed on cells within 10 passages of each other, during which period phenotypes remained stable. All anthraquinone/amino acid conjugates were dissolved in water and not more than 0.01% DMSO. Activity was determined by an MTT assay after 24 hours exposure using essentially the method of Plumb et al (Plumb, J., Milroy, R and Kaye, S. B., 1989, Effects of the pH dependence of 3-([…])-2,5-diphenyl tetrazolium bromide formazan absorption on chemosensitivity, Cancer Research, 49: 4435-4440). Characteristics of the cell lines are described in full in Cummings et al 1996, Biochem.Pharmacol. 52: 979-990.

[2] = biological target: T1, Topoisomerase IIα (Homo sapiens, UniProt P11388); experiment: Topo II cleavage assay; type: biochemical; design: key: ‘—’ = Not active; conditions: unit not given; compound at 1, 10, 25 and 50 μM in protocol
T1 sequence (P11388 whole entry): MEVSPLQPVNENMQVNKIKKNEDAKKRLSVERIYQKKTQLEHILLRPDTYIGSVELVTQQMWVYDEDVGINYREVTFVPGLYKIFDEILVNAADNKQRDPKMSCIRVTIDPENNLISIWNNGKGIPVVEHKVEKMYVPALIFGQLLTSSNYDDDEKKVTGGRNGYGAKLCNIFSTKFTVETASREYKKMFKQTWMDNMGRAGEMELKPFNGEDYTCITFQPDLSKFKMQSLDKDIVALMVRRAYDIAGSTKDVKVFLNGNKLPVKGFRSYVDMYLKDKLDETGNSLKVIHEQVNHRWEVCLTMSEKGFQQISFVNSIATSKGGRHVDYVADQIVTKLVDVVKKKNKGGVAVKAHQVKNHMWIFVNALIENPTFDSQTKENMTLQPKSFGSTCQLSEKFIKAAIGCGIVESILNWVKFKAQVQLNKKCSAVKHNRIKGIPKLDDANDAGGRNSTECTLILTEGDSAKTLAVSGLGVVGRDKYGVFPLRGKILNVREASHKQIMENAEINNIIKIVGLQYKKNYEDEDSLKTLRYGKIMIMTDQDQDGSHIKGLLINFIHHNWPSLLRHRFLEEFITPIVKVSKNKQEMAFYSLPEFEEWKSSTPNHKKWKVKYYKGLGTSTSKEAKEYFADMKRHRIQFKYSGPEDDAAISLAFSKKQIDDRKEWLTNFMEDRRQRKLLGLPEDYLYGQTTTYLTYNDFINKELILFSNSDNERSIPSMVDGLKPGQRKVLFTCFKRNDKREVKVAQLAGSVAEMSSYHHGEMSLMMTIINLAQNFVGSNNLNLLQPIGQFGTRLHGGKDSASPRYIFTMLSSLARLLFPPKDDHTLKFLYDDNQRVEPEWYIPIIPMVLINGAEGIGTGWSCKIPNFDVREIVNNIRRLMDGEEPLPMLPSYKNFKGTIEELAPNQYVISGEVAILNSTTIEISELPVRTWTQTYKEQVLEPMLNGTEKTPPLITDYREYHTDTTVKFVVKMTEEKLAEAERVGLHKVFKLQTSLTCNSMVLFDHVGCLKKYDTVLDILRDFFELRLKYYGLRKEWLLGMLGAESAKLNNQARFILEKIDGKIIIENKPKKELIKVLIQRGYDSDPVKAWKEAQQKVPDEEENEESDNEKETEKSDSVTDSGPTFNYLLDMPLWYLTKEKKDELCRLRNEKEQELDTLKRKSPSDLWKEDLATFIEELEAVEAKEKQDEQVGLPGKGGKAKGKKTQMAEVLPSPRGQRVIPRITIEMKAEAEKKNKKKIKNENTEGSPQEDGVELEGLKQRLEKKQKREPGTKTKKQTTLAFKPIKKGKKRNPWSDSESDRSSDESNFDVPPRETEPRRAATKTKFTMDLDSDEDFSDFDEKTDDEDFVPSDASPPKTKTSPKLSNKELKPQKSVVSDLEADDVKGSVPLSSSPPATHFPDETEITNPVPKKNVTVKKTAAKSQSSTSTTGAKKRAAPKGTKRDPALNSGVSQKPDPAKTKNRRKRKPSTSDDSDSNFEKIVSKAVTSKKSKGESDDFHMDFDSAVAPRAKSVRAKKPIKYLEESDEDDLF
Method: Topo II 5 μl (1-1 μg); […] Results are included in Table 3 below.

[3] = biological target: T2, Topoisomerase I (Homo sapiens, UniProt P11387); experiment: Topo I cleavage assay; type: biochemical; conditions: for TopI Cleave: unit not given, compound at 1, 10, 25 and 50 μM in protocol
T2 sequence (P11387 1-765): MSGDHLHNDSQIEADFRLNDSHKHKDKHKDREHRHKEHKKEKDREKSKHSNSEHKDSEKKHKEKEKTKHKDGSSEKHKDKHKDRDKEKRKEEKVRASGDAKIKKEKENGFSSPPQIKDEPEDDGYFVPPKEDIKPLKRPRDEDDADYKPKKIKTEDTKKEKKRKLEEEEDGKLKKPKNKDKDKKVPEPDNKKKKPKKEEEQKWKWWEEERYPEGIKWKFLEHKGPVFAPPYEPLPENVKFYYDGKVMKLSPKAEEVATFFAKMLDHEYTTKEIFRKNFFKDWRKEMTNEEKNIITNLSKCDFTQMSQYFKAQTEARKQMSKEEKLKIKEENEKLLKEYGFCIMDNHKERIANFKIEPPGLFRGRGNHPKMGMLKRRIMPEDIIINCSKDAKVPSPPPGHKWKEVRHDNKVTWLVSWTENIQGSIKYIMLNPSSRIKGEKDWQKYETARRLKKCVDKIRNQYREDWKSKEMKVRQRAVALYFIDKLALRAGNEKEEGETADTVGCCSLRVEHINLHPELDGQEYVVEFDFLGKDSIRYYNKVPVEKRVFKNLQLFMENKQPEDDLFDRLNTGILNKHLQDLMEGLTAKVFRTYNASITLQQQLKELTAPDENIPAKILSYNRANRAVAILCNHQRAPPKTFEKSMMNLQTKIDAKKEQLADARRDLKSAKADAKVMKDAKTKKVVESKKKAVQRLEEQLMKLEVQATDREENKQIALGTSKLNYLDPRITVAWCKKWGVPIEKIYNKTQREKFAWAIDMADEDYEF

[4] = biological target: T3, Topoisomerase IIβ (Homo sapiens, UniProt Q02880); experiment: Topo II decatenation assay; type: biochemical; conditions: unit not given; kDNA substrate; compound at 1, 10, 25 and 50 μM in protocol
T3 sequence (Q02880 whole entry): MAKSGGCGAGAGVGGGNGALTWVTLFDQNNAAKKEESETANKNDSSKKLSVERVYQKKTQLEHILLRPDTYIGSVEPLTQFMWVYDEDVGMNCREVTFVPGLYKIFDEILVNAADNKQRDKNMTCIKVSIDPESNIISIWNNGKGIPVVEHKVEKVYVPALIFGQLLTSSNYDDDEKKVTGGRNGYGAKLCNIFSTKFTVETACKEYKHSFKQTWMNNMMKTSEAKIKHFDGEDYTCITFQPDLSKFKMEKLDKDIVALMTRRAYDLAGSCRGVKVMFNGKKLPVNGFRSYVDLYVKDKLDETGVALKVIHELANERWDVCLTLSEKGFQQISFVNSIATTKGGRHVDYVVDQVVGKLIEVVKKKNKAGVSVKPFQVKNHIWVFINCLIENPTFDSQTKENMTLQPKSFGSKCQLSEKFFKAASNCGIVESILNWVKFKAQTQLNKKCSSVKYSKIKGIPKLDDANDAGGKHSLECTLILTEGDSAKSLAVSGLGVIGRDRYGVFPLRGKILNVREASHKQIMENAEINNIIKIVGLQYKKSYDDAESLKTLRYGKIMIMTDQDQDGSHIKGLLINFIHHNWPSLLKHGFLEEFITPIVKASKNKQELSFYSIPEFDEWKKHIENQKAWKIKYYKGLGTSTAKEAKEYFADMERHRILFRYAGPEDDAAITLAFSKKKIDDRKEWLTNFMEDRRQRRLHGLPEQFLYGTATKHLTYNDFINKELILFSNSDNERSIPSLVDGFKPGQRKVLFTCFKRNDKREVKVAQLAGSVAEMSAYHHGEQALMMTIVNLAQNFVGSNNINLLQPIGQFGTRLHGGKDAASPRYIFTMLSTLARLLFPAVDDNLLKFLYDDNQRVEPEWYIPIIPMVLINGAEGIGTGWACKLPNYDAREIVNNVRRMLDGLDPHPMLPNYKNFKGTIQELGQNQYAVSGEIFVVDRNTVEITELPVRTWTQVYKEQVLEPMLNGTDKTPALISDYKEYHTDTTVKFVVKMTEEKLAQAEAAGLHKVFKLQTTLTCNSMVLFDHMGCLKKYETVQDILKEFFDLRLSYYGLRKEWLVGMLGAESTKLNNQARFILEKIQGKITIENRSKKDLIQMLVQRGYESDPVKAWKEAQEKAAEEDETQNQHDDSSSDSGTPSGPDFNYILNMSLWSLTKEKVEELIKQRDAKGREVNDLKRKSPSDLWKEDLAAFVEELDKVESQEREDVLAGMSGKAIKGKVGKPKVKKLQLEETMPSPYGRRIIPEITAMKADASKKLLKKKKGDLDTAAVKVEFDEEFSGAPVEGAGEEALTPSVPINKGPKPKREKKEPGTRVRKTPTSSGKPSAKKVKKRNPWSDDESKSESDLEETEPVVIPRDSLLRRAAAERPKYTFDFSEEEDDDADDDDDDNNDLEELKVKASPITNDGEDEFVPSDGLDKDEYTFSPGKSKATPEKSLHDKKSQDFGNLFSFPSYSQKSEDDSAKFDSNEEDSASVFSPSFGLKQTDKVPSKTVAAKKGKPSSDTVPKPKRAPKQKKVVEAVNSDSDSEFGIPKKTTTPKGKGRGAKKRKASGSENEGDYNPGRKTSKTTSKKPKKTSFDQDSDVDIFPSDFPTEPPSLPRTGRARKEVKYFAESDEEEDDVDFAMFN
Method: (§1) Topisomerase Decatenation Assay.
(§2) This method uses catenated DNA substrate prepared from the kinetoplast of the insect trypanosome Crithidia fasciculata. Upon incubation with topo II, which engages DNA in a double stranded breakage-reunion cycle, DNA minicircles are released. Addition of topo-inhibiting drugs may prevent decatenation.
(§3) Topo II Decatenation Assay Protocol
(§4) This assay is the same as the Topo II Relaxation assay except that the pBR 322 Plasmid DNA is replaced with kDNA.
(§5) Results are included in Table 3 below

[5] = biological target: T1, Topoisomerase IIα; experiment: Topo II decatenation assay; type: biochemical; design: key: ‘—’ = Not active; conditions: unit not given; kDNA substrate; compound at 1, 10, 25 and 50 μM in protocol
Method: as §1, §2, §3, §4, §5

[6] = biological target: T1, Topoisomerase IIα; experiment: Topo II relaxation assay; type: biochemical; design: key: ‘—’ = Not active; conditions: unit not given; compound at 1, 10, 25 and 50 μM in protocol
Method: (§6) Topo II Relaxation Assay Protocol
(§7) 10×Topo II Relaxation Buffer
(§8) 500 mM Tris-HCl (pH 7.5); 100 mM mgCI2; 50 mM EDTA; 300 mg/mI BSA; 10 mM DTT; −20° C.

[7] = biological target: T3, Topoisomerase IIβ; experiment: Topo II relaxation assay; type: biochemical; design: key: ‘—’ = Not active; conditions: unit not given; compound at 1, 10, 25 and 50 μM in protocol
Method: as §6, §7, §8

Structure (SMILES)	IC50 at 24 h ([1]; CHO-ADR-1 cells, ADR line) [µM]	IC50 at 24 h ([1]; CHO-ADR-r cells, ADR line) [µM]	IC50 at 24 h ([1]; CHO-K1 cells) [µM]	TopIIα Cleave. [2]	TopI Cleave [3]	TopIIβ Decat. [4]	TopIIα Decat. [5]	TopIIα Relax. [6]	TopIIβ Relax. [7]	nicked DNA ([3]; at 100 μM) [%]
C[C@@H](N)C(=O)OCCCCNc1cccc2c1C(=O)c1ccccc1C2=O.O=C(O)C(F)(F)F [Example 45, 1-[4-(D-alanyloxy)butylamino]anthracene-9,10-dione trifluoroacetate]	46.3	31.5	40.5	—	300	20	—	—	25	
C[C@H](N)C(=O)OCCCCNc1cccc2c1C(=O)c1ccccc1C2=O.O=C(O)C(F)(F)F [Example 43, 1-[4-(L-alanyloxy)butylamino]anthracene-9,10-dione trifluoroacetate]	6.6	25.2	54	—	100	25	—	—	15	20
